Measurements reported in publication PMC9503608, “An Insight into Symmetrical Cyanine Dyes as Promising Selective Antiproliferative Agents in Caco-2 Colorectal Cancer Cells” (Molecules, 2022).

Tests used:
NHDF cell line = test: Photocytotoxicity evaluation (MTT after white LED light irradiation); format: cell-based, human; conditions: 30 min white LED light versus dark
Method: The photocytotoxicity evaluation was performed on the NHDF cell line similar to the above MTT cell viability assay. In contrast to 72 h continuous incubation in the dark with test solutions, cells were subjected to 30 min of constant irradiation with white light from an RGBW LED projector (220–240 V and 30 W, Luxtar) after 48 h of incubation. This light source emits radiation at wavelengths suitable for the excitation of evaluated dye (see support information) with a total fluence rate of 1.196 W/sr·m^2 (measured with a pr-650 spectrascan spectroradiometer, Photo Research Inc., Chatsworth, CA, USA). During the photocytotoxicity treatment, the device was placed over the culture cell plates supported by a closed system at a distance of 12 cm. The maximum temperature of the exposure of the cells was 37 °C. After this irradiation, cells were incubated for an additional 24 h, making up a total of 72 h incubation and exposure to the test solutions. To check the validity of the light source, the squaraine dye 4, which was previously described with relevant photodynamic activity, was used as a positive control. A photocytotoxicity assay was performed in quadruplicate, and at least two independent assays were achieved.

[1] = tested on: PC-3 prostate adenocarcinoma cell line; test: MTT cell viability assay, PC-3; format: cell-based, human
Method: (§1) Caco-2, MCF-7, PC-3, and NHDF cell lines were obtained from the American Type Culture Collection (ATCC) and maintained in 75 cm^2 culture flasks in a humidified atmosphere at 37 °C with 5% carbon dioxide using a LEEC Culture Safe Precision CO2 Incubator. The culture media was renewed every two to three days. The NHDF cell line was cultured in Roswell Park Memorial Institute (RPMI) medium supplemented with 10% of inactivated fetal bovine serum (FBS), 2 mM of L-glutamine, 10 mM of 4-(2-hydroxyethyl)-1-piperazineethanesulfonic acid (HEPES), 1 mM of sodium pyruvate, and 1% of antibiotic/antimycotic mixture (Ab; 10,000 U/mL of penicillin G, […] of streptomycin, and 25 µg/mL of amphotericin B). The PC-3 cell line was also cultured in RPMI 1640 medium supplemented with 10% inactivated FBS and 1% of an antibiotic mixture (Sp; 10,000 U/mL of penicillin G and […] of streptomycin). The Caco-2 and MCF-7 cell lines were grown in Dulbecco’s Modified Eagle Medium (DMEM). Caco-2 was supplemented with 20% of inactivated FBS and 1% of Sp. On the other hand, the MCF-7 medium was complemented with 10% of inactivated FBS and 1% of Ab. All manipulations were performed in a Labculture Class II A2 Biological Safety Cabinet.
(§2) After the near confluency of cultures, cells were detached with a solution of 0.125 g/L trypsin and 0.02 g/L ethylenediaminetetracetic acid (EDTA), counted using the trypan blue method, resuspended, and seeded in 96-well culture plates (100 µL, 2 × 10^4 cells/mL). Following 48 h of adherence, cells were treated with the test solutions and incubated for 72 h. This incubation, as well as the solution manipulations, were performed in an environment protected from light. After the incubation, the medium was replaced with a fresh incomplete culture medium (without FBS and Ab or Sp) and MTT solution (5 mg/mL in phosphate buffer saline (PBS)). After additional incubation for 4 h, the MTT medium was removed, formazan crystals were dissolved in DMSO, and the optical density of each well was measured at 570 nm using a microplate spectrophotometer Bio-Rad xMark. Untreated cells were used as a negative control and 5-FU as the positive control. The results were expressed as the relative cell proliferation relative to the negative control cells. […] To determine the IC50 values, Caco-2, MCF-7, PC-3, and NHDF cells were exposed to increasing concentrations between 0.001 and 100 μM.

Caco-2 cells = test: Cell cycle distribution by propidium iodide staining and flow cytometry; format: cell-based, human; conditions: dye 12 and 5-FU 10 µM 72 h, sorbitol 600 mM 24 h, versus untreated cells
Method: The apoptosis occurrence and influence of the dye 12 on the cell cycle were evaluated using propidium iodide (PI) staining and flow cytometry, as described by Riccardi and Nicolleti. After the near confluency of the culture, trypsinisation, and counting, Caco-2 cells were seeded (2 mL, 3 × 10^4 cells/mL) in 6-well plates. After 48 h of adherence, the cells were treated with the test solutions (3 mL and 5 mL for negative control) and incubated for 72 h. Untreated cells were used as the negative control, and sorbitol and 5-FU [56] were used as positive controls for the apoptosis and cell cycle distribution studies, respectively. After incubation, the supernatant was collected and the cells were washed with PBS and combined with the cells harvested using the trypsin treatment. This cell suspension was maintained on ice and centrifugated, and then the pellet was resuspended in 0.5 mL of PBS. The cells were fixed by adding 4.5 mL of 70% ethanol cooled at −20 °C and were stored at the same temperature. For the cytometry analysis, PBS was added to the fixed cells before centrifugation, and then the ethanolic supernatant was removed. The pellet was resuspended in 0.5 mL of PBS and 0.5 mL of DNA extraction (192 mL of 0.2 M sodium phosphate and 8 mL of […], pH 7.8) was added. After incubation for 5 min, the cells were centrifuged, the supernatant was removed, and the pellet resuspended in 0.3 mL of staining solution (20 µg/mL of PI and 0.2 mg/mL of DNase-free RNase in PBS). Using a FACSCalibur flow cytometer and the 488 nm laser line, a minimum of 20,000 events were recorded. Acquisition and apoptosis analysis was performed using BD CellQuestTM Pro 4.0.2 Software. Cell cycle analysis was performed with ModFit LT 5.0.9 software. To exclude debris and necrotic cells, events with a lower diameter (forward scatter; FCS) and reduced PI fluorescence (FL3) than the hypodiploid apoptotic cells were eliminated. Two independent experiments were performed.

[2] = tested on: MCF-7 breast adenocarcinoma cell line; test: MTT cell viability assay, MCF-7; format: cell-based, human; conditions: Homo sapiens
Method: as §1, §2

[3] = tested on: normal human dermal fibroblasts (NHDF); test: MTT cell viability assay, NHDF; format: cell-based; conditions: Homo sapiens, NHDF, 72 h, 72 h of incubation, MTT, protected from light
Method: as §1, §2

[4] = MTT cell viability assay, NHDF; format: cell-based, human; conditions: human, normal human dermal fibroblasts (NHDF), single concentration of 10 µM, 72 h, mean ± SD; read-out: cell viability percentage in relation with control, NHDF
Method: as §1, §2

CN1C(=Cc2oc3ccccc3[n+]2C)Oc2ccccc21.Cc1ccc(S(=O)(=O)[O-])cc1 [Dye 12, 3-Methyl-2-((3-methylbenzo[d]oxazol-2(3H)-ylidene)methyl)benzo[d]oxazol-3-ium 4-methylbenzenesulfonate]
photocytotoxicity (irradiation influence on cytotoxicity) (NHDF cell line): total absence of photocytotoxicity
viability at 10 µM ([1]; Homo sapiens, 72 h, single concentration of 10 µM, 72 h, mean ± SD, read-out: cell viability percentage in relation with control, PC-3): 9.33 ± 4.28%
IC50 ([1]; Homo sapiens, 72 h of incubation, MTT, protected from light): 4.53 µM
SI PC-3 (selectivity index, cancer versus NHDF) ([1]; PC-3 versus NHDF, 72 h): 3.1
effect on cell cycle distribution (Caco-2 cells): notorious increase in the number of cells in the G0/G1 phase
viability at 10 µM ([2]; MCF7, 72 h, single concentration of 10 µM, 72 h, mean ± SD, read-out: cell viability percentage in relation with control, MCF-7): 10.8 ± 1.98%
IC50 ([2]; MCF7, 72 h of incubation, MTT, protected from light): 4.57 µM
IC50 [3]: 14 µM
viability at 72 h, 10 µM [4]: 41 ± 0.82%
